Data taken from US7763656B2, “Use of Acetylamino benzoic acid compounds for nonsense suppression and the treatment of disease” (PTC Therapeutics, Inc., priority 2002, dated 2010).
Values joined by “and” are separate entries in the source; they are usually repeats but may differ in a detail not shown here. Equal values may be shown once.

First: Cc1ccc(OCC(=O)Nc2cccc(C(=O)O)c2)cc1C [Compound 1, 3-[2-(3,4-dimethyl-phenoxy)-acetylamino]-benzoic acid]
Second: Cc1cc(OCC(=O)Nc2cccc(C(=O)O)c2)ccc1Cl [Compound 25, 3-[2-(4-chloro-3-methyl-phenoxy)-acetylamino]-benzoic acid]
The melting point of the first is higher: 201 to 202 °C for the first, 197 to 198 °C for the second.

Compared with `CC(C)c1ccccc1SCC(=O)Nc1cccc(C(=O)O)c1` [Compound 3, 3-[2-(2-isopropyl-phenylsulfanyl)-acetylamino]-benzoic acid], `CC(C)c1ccccc1OCC(=O)Nc1cccc(C(=O)O)c1` [Compound 43, 3-[2-(2-Isopropyl-phenoxy)-acetylamino]-benzoic acid] is lower in melting point: 178 to 179 °C for the first, 168 to 170 °C for the second.

First: Cc1cc(OCC(=O)Nc2cccc(C(=O)O)c2)cc(C(C)C)c1 [Compound 5, 3-[2-(3-isopropyl-5-methyl-phenoxy)-acetylamino]-benzoic acid]
Second: CC(C)c1cccc(OCC(=O)Nc2cccc(C(=O)O)c2)c1 [Compound 6, 3-[2-(3-isopropyl-phenoxy)-acetylamino]-benzoic acid]
The melting point of the first is higher: 183 to 184 °C for the first, 166 to 167 °C for the second.

Compared with `CC(C)c1ccc(OCC(=O)Nc2cccc(C(=O)O)c2)cc1` [Compound 7, 3-[2-(4-isopropyl-phenoxy)-acetylamino]-benzoic acid], `CCc1ccc(OCC(=O)Nc2cccc(C(=O)O)c2)cc1` [Compound 18, 3-[2-(4-ethyl-phenoxy)-acetylamino]-benzoic acid] is higher in melting point: 171 to 174 °C for the first, 209 to 211 °C for the second.

Compared with `Cc1ccccc1-c1ccc(OCC(=O)Nc2cccc(C(=O)O)c2)cc1` [Compound 9, 3-[2-(2’-methyl-biphen-4-yloxy)-acetylamino]-benzoic acid], `O=C(COc1ccc(-c2ccccc2)cc1)Nc1cccc(C(=O)O)c1` [Compound 13, 3-[2-(biphen-4-yloxy)-acetylamino]-benzoic acid] is higher in melting point: 220 to 221 °C for the first, 245 to 246 °C for the second.

First: Cc1cccc(-c2ccc(OCC(=O)Nc3cccc(C(=O)O)c3)cc2)c1 [Compound 10, 3-[2-(3’-methyl-biphen-4-yloxy)-acetylamino]-benzoic acid]
Second: Cc1cccc(OCC(=O)Nc2cccc(C(=O)O)c2)c1 [Compound 42, 3-[2-(5-Methyl-phenoxy)-acetylamino]-benzoic acid]
The melting point of the first is higher: 225 to 226 °C for the first, 200 to 201 °C for the second.

First: O=C(COc1ccc(Cl)c(Cl)c1)Nc1cccc(C(=O)O)c1 [Compound 12, 3-[2-(3,4-dichlorophenoxy)-acetylamino]-benzoic acid]
Second: O=C(COc1ccc(Cl)c(F)c1)Nc1cccc(C(=O)O)c1 [Compound 54, 3-[2-(4-Chloro-3-fluoro-phenoxy)-acetylamino]-benzoic acid]
The melting point of the first is lower: 219 to 221 °C for the first, 242 to 244 °C for the second.

First: CCC(C)(C)c1ccc(OCC(=O)Nc2cccc(C(=O)O)c2)cc1 [Compound 15, 3-{2-[4-(1,1-dimethyl-propyl)-phenoxy]acetylamino)-benzoic acid]
Second: CCCc1ccc(OCC(=O)Nc2cccc(C(=O)O)c2)cc1 [Compound 16, 3-[2-(4-propyl-phenoxy)-acetylamino]-benzoic acid]
The melting point of the first is lower: 164 to 165 °C for the first, 185 to 186 °C for the second.

First: O=C(COc1ccc2c(c1)CCC2)Nc1cccc(C(=O)O)c1 [Compound 19, 3-[2-(indan-5-yloxy)-acetylamino]-benzoic acid]
Second: O=C(COc1ccc2c(c1)CCCC2)Nc1cccc(C(=O)O)c1 [Compound 20, 3-[2-(5,6,7,8-tetrahydro-naphthalen-2-yloxy)-acetylamino]-benzoic acid]
The melting point of the first is higher: 203 to 204 °C for the first, 199 to 201 °C for the second.

Compared with `CC(C)(c1ccccc1)c1ccc(OCC(=O)Nc2cccc(C(=O)O)c2)cc1` [Compound 22, 3-{2-[4-(1-methyl-1-phenyl-ethyl)-phenoxy]-acetylamino}-benzoic acid], `O=C(COc1ccc(C(=O)c2ccccc2)cc1)Nc1cccc(C(=O)O)c1` [Compound 32, 3-[2-(4-benzoyl-phenoxy)-acetylamino]-benzoic acid] is higher in melting point: 207 to 208 °C for the first, 208 to 210 °C for the second.

First: O=C(COc1ccc(C2CCCC2)cc1)Nc1cccc(C(=O)O)c1 [Compound 24, 3-[2-(4-cyclopentyl-phenoxy)-acetylamino]-benzoic acid]
Second: O=C(COc1ccc(CO)cc1)Nc1cccc(C(=O)O)c1 [Compound 55, 3-[2-(4-Hydroxymethyl-phenoxy)-acetylamino]-benzoic acid]
The melting point of the first is higher: 212 to 213 °C for the first, 209 to 212 °C for the second.

First: CCOc1ccc(OCC(=O)Nc2cccc(C(=O)O)c2)cc1 [Compound 27, 3-[2-(4-ethoxy-phenoxy)-acetylamino]-benzoic acid]
Second: O=C(COc1ccc(C(=O)O)cc1)Nc1cccc(C(=O)O)c1 [Compound 50, 3-[2-(4-Carboxy-phenoxy)-acetylamino]-benzoic acid]
The melting point of the first is lower: 191 to 192 °C for the first, 260 to 261 °C for the second.

Compared with `O=C(COc1ccc(C#Cc2ccccc2)cc1)Nc1cccc(C(=O)O)c1` [Compound 28, 3-[2-(4-phenylethynyl-phenoxy)-acetylamino]-benzoic acid], `O=C(COc1ccc2ccccc2c1)Nc1cccc(C(=O)O)c1` [Compound 52, 3-[2-(Naphthalen-2-yloxy)-acetylamino]-benzoic acid] is lower in melting point: 242 to 244 °C for the first, 223 to 224 °C for the second.

First: CC(C)c1ccc(C(=O)CC(=O)Nc2cccc(C(=O)O)c2)cc1 [Compound 29, 3-[3-(4-isopropyl-phenyl)-3-oxo-propionylamino]-benzoic acid]
Second: Cc1ccc(C(C)C)cc1OCC(=O)Nc1cccc(C(=O)O)c1 [Compound 45, 3-[2-(5-Isopropyl-2-methyl-phenoxy)-acetylamino]-benzoic acid]
The melting point of the first is higher: 262 to 263 °C for the first, 211 to 213 °C for the second.

First: Cc1cc(OCC(=O)Nc2cccc(C(=O)O)c2Cl)ccc1C(C)C [Compound 30, 2-chloro-3-[2-(4-isopropyl-3-methyl-phenoxy)-acetylamino]-benzoic acid]
Second: Cc1cc(OCC(=O)Nc2cc(C(=O)O)ccc2Cl)ccc1C(C)C [Compound 31, 4-chloro-3-[2-(4-isopropyl-3-methyl-phenoxy)-acetylamino]-benzoic acid]
The melting point of the first is lower: 161 to 162 °C for the first, 218 to 220 °C for the second.

First: CC(C)c1ccc(OC2CCN(c3cccc(C(=O)O)c3)C2=O)cc1 (stereo not drawn) [Compound 33, 3-[3-(4-Isopropyl-phenoxy)-2-oxo-pyrrolidin-1-yl]-benzoic acid]
Second: CC(C)c1ccc(OC2CCN(c3cccc(C(=O)[O-])c3)C2=O)cc1.[Na+] (stereo not drawn) [Compound 34, 3-[3-(4-Isopropyl-phenoxy)-2-oxo-pyrrolidin-1-yl]-benzoic acid Sodium Salt]
The melting point of the first is higher: 210 to 211 °C for the first, 164 to 165 °C for the second.

First: O=C(O)c1cccc(N2CCC(Oc3ccc4c(c3)CCC4)C2=O)c1 (stereo not drawn) [Compound 35, 3-[3-(Indan-5-yloxy)-2-oxo-pyrrolidin-1-yl]-benzoic acid]
Second: O=C(O)c1cccc(N2CCC(Oc3ccc4c(c3)OCO4)C2=O)c1 (stereo not drawn) [Compound 36, 3-[3-(Benzo[1,3]dioxol-5-yloxy)-2-oxo-pyrrolidin-1-yl]-benzoic acid]
The melting point of the first is lower: 182 to 184 °C for the first, 194 to 197 °C for the second.

Compared with `O=C(O)c1cccc(N2CCC(Oc3ccc(Oc4ccc(C(F)(F)F)cc4)cc3)C2=O)c1` (stereo not drawn) [Compound 37, 3{2-Oxo-3-[4-(4-trifluoromethyl-phenoxy)-phenoxy]-pyrrolidin-1-yl}-benzoic acid], `O=C(O)c1cccc(N2CCC(Oc3ccc(Oc4ccccc4)cc3)C2=O)c1` (stereo not drawn) [Compound 39, 3-[2-Oxo-3-(4-phenoxy-phenoxy)-pyrrolidin-1-yl]-benzoic acid] is higher in melting point: 175 to 178 °C for the first, 185 to 187 °C for the second.

First: CCc1cccc(OC2CCN(c3cccc(C(=O)O)c3)C2=O)c1 (stereo not drawn) [Compound 38]
Second: Cc1ccc(C(C)C)c(OCC(=O)Nc2cccc(C(=O)O)c2)c1 [Compound 40, 3-[2-(2-Isopropyl-5-methyl-phenoxy)-acetylamino]-benzoic acid]
The melting point of the first is lower: 150 to 152 °C for the first, 211 to 213 °C for the second.

First: Cc1ccc(C(C)C)c(OC(C)C(=O)Nc2cccc(C(=O)O)c2)c1 (stereo not drawn) [Compound 41, 3-[2-(2-Isopropyl-5-methyl-phenoxy)-propionylamino]-benzoic acid]
Second: Cc1cc(OC(C)C(=O)Nc2cccc(C(=O)O)c2)ccc1C(C)C (stereo not drawn) [Compound 47, 3-[2-(4-Isopropyl-3-methyl-phenoxy)-propionylamino]-benzoic acid]
The melting point of the first is lower: 161 to 163 °C for the first, 186 to 187 °C for the second.

First: COc1ccc(C(=O)O)cc1NC(=O)COc1cc(C)ccc1C(C)C [Compound 44, 3-[2-(2-Isopropyl-5-methyl-phenoxy)-acetylamino]-4-methoxy-benzoic acid]
Second: Cc1ccc(C(=O)O)cc1NC(=O)COc1ccc(C(C)C)c(C)c1 [Compound 48, 3-{2-(4-Isopropyl-3-methyl-phenoxy)-acetylamino]-4-methyl-benzoic acid]
The melting point of the first is higher: 253 to 255 °C for the first, 188 to 189 °C for the second.

First: O=C(COc1ccc2c(c1)OCO2)Nc1cccc(C(=O)O)c1 [Compound 53, 3-[2-(Benzo[1,3]dioxol-5-yloxy)-acetylamino]-benzoic acid]
Second: Cc1cc(OCC(=O)Nc2ccc(Cl)c(C(=O)O)c2)ccc1C(C)C [Compound 57, 2-Chloro-5-[2-(4-isopropyl-3-methyl-phenoxy)-acetylamino]-benzoic acid]
The melting point of the first is higher: 191 to 194 °C for the first, 174 to 175 °C for the second.

First: Cc1cc(OCC(=O)Nc2ccc(O)c(C(=O)O)c2)ccc1C(C)C [Compound 56, 2-Hydroxy-5-[2-(4-isopropyl-3-methyl-phenoxy)-acetylamino] benzoic acid]
Second: Cc1cc(OCC(=O)Nc2cc(F)c(F)c(C(=O)O)c2F)ccc1C(C)C [Compound 58, 2,3,6-Trifluoro-5-[2-(4-isopropyl-3-methyl-phenoxy)-acetylamino]-benzoic acid]
The melting point of the first is lower: 101 to 103 °C for the first, 200 to 208 °C for the second.

With `Cc1cc(OCC(=O)Nc2cccc(C(=O)O)c2)ccc1C(C)C` [Compound 4, 3-[2-(4-isopropyl-3-methyl-phenoxy)-acetylamino]-benzoic acid] the melting point was 191 to 192 °C and 188 to 189 °C.
With `Cc1cc(OCC(=S)Nc2cccc(C(=O)O)c2)ccc1C(C)C` [Compound 8, 3-[2-(4-isopropyl-3-methyl-phenoxy)-thioacetylamino]-benzoic acid] the melting point was 174 to 176 °C and 174 to 175 °C.
